“And” between values parts separate entries of the source, which are not always exact repeats. Equal entries are not always repeated. “Also recorded” adds a separate entry of the source.
Legend:
CYP3A4 [1] = experiment: CYP induction (enzyme activity) in cryopreserved human hepatocytes, CYP3A4; type: in vitro ADME; details: for fold induction at 72 h, 0.15 µM / fold induction at 72 h, 1.5 µM / fold induction at 72 h, 5 µM / fold induction at 72 h, 15 µM: human, plated cryopreserved human hepatocytes
CYP3A4 [2] = target: CYP3A4 (Homo sapiens, UniProt P08684); experiment: CYP phenotyping, recombinant CYP3A4
Method: (§3) Bactosomes prepared from E. coli that heterologously expressed individual human CYP isoforms together with human CYP reductase were obtained from CYPEX LTD (Scotland, UK), and stored at −80 °C prior to use. […] Timepoints were taken at 0, 5, 10, 15, 20, and 30 min. Substrate disappearance was used to calculate intrinsic clearance (Clint) and half-life (t1/2). All incubations were performed in triplicate. […] The chemical inhibitors for CYP1A2, 2A6, 2B6, 2C8, 2C9, 2C19, 2D6, and 3A4 were furafylline, tranylcypromine, ticlopidine, montelukast, sulfaphenazole, N-3-benzylnirvanol, quinidine, and ketoconazole, respectively. Timepoints were collected at 0, 15, 30, 45, and 60 min, and the remaining percentage of the parent drug at each timepoint was calculated (the calculation details are available in the Supplementary Materials). All incubations were performed in triplicate.
The slope, k, was determined by linear regression of the natural logarithm of percent parent disappearance vs. incubation time curve. Peak areas for test article and internal standard were determined from extracted ion chromatograms. The peak area ratio was used to calculated for the results.
(§4) The half-life value (t1/2 rCYPi) was determined from the slope value:
(§5) Conversion of the t1/2 rCYPi (in min) into the intrinsic clearance (Clint rCYPi in μL/min/pmol) was done using the following equation:
1.3.2 For inhibition ratio (%) (Liver microsomes with and without inhibitors) The slope value, k, was determined by linear regression of the natural logarithm of the remaining percentage of the parent drug vs. incubation time curve. If the turnover was not significant (T-test with p<0.05 was not obtained) and the percentage remaining at last time point was ≥ 80%, the k value was

[3] = Stability in incubation medium only; type: in vitro ADME; details: 1 μM
Method: Hepatocytes of humans (#X008001), dogs (#M00205), rats (#M00005), and mice (#M005052) were purchased from BioIVT, NY, USA. Monkey hepatocytes were procured from RILD, Shanghai, China. The metabolic stability of ZB716 in human, monkey, dog, rat and mouse hepatocytes was investigated by incubating ZB716 with human, monkey, dog, rat, and mouse hepatocytes (0.5 × 10^6 cells/mL), or with incubation medium only.
parent disappearance vs. incubation time curve.
Scaled-up Clint = kV/N × Scaling Factor
metabolite formed during the reaction.

CYP2B6 = target: T1, CYP2B6 (Homo sapiens, UniProt P20813); experiment: CYP inhibition in human liver microsomes, CYP2B6; type: in vitro ADME; details: HLM, marker substrate Bupropion
T1 sequence (P20813 1-491): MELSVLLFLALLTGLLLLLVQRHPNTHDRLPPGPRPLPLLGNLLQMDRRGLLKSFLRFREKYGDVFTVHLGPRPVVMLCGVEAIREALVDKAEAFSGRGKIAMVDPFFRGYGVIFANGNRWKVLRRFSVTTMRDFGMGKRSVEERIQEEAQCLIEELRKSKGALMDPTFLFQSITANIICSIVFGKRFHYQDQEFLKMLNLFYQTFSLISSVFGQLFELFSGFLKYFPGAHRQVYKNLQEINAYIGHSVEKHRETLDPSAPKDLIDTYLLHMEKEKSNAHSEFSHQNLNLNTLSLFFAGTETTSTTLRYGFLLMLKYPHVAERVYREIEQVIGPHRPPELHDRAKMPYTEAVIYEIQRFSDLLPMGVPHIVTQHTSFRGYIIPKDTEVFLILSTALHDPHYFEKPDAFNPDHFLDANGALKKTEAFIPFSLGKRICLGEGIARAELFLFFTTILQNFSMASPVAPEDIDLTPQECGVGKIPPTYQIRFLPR
Method: (§1) . The inhibition of CYP2B6 and 3A4 (when midazolam was used as the substrate) by ZB716 was not observed. The inhibitory potential of ZB716 on human CYP enzyme activities appears relatively low.
(§2) The final concentrations of ZB716 in the incubation system were 0, 0.05, 0.15, 0.5, 1.5, 5, and 15 µM (final organic solvent concentration ≤ 1%). […] . […] The concentrations of the isoform-specific metabolites derived from marker substrates were measured by UPLC–MS/MS. The IC50 values were calculated from the percentages of the rate of the metabolite formation relative to non-inhibited controls vs. the concentrations of ZB716 or positive control inhibitors. All incubations were performed in triplicate. The mean of the enzyme activity (% of non-inhibited control) for each concentration was plotted against the log inhibitor concentration, and fitted to an IC50 curve.

CYP1A2 = target: T2, CYP1A2 (Homo sapiens, UniProt P05177); experiment: CYP inhibition in human liver microsomes, CYP1A2; type: in vitro ADME; details: HLM, marker substrate Phenacetin
T2 sequence (P05177 1-516): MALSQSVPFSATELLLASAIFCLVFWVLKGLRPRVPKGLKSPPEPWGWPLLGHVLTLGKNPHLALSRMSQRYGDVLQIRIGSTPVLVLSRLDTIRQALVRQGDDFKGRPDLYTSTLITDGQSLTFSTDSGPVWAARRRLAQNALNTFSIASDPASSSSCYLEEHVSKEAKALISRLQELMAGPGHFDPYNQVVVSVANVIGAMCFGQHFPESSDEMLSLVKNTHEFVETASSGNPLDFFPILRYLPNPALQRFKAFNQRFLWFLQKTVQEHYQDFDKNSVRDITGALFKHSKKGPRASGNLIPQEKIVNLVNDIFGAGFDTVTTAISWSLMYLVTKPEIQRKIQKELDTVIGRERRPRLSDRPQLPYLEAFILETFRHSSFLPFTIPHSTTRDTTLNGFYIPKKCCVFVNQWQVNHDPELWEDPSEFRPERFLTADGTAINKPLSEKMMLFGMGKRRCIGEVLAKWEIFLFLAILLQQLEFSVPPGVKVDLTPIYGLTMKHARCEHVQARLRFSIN
Method: as §1, §2

CYP2E1 = CYP2E1 (Homo sapiens, UniProt P05181); experiment: CYP phenotyping, recombinant CYP2E1
Method: Bactosomes prepared from E. coli that heterologously expressed individual human CYP isoforms together with human CYP reductase were obtained from CYPEX LTD (Scotland, UK), and stored at −80 °C prior to use. […] Timepoints were taken at 0, 5, 10, 15, 20, and 30 min. Substrate disappearance was used to calculate intrinsic clearance (Clint) and half-life (t1/2). All incubations were performed in triplicate.
(§6) 1.3.1 Intrinsic Clearance (Heterologously Expressed Human Cytochrome P450) All calculations were carried out using Microsoft Excel. The slope, k, was determined by linear regression of the natural logarithm of percent parent disappearance vs. incubation time curve. Peak areas for test article and internal standard were determined from extracted ion chromatograms. The peak area ratio was used to calculated for the results.
as §4, §5

CYP2C8 = target: T3, CYP2C8 (Homo sapiens, UniProt P10632); experiment: CYP phenotyping, recombinant CYP2C8
T3 sequence (P10632 1-490): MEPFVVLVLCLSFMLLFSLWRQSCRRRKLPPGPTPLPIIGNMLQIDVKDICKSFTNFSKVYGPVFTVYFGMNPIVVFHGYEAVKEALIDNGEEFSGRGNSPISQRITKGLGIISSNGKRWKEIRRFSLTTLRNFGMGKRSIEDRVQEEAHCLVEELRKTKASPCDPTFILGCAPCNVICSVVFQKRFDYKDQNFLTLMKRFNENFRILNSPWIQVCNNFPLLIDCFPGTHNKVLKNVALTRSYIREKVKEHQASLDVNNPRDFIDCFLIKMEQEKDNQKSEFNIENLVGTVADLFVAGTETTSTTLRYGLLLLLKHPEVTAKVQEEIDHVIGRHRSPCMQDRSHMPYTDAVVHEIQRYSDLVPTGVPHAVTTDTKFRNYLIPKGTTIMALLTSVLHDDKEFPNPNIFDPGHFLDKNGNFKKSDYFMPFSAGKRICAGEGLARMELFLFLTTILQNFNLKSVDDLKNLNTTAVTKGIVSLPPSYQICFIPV
Method: as §3, §6
The half-life value (t1/2 rCYPi) was determined from the slope value: […]

CYP2C19 = CYP2C19 (Homo sapiens, UniProt P33261); experiment: CYP inhibition in human liver microsomes, CYP2C19; type: in vitro ADME; details: HLM, marker substrate Mephenytoin
Method: as §1, §2

CYP3A4 (Homo sapiens, UniProt P08684), sequence (P08684 whole entry): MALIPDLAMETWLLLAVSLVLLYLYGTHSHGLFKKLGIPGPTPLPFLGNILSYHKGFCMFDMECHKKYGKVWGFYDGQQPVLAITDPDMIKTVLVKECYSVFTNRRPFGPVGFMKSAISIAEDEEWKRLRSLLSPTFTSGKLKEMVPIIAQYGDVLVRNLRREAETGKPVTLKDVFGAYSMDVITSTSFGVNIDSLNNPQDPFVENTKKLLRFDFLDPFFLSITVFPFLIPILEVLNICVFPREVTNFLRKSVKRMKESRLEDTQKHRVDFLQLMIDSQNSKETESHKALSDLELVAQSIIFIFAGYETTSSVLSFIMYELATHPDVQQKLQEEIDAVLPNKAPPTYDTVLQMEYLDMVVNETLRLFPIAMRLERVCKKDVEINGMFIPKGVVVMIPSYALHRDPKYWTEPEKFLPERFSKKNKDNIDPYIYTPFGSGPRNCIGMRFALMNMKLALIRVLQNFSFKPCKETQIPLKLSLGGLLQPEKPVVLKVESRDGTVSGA
CYP2E1, sequence (P05181 whole entry): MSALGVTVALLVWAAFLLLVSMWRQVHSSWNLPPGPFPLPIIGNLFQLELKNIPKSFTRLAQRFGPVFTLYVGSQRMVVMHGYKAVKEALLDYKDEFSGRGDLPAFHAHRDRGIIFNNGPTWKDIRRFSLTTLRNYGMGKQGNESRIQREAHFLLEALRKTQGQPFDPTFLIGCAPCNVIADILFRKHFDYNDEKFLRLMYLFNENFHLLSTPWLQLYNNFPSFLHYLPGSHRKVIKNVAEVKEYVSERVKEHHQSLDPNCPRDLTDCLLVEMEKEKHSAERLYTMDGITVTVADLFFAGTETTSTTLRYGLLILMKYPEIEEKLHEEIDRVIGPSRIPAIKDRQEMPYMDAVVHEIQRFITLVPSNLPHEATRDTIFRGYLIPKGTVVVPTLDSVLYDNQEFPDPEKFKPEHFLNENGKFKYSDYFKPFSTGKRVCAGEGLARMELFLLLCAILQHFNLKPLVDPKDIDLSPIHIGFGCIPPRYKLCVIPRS
CYP2C19, sequence (P33261 whole entry): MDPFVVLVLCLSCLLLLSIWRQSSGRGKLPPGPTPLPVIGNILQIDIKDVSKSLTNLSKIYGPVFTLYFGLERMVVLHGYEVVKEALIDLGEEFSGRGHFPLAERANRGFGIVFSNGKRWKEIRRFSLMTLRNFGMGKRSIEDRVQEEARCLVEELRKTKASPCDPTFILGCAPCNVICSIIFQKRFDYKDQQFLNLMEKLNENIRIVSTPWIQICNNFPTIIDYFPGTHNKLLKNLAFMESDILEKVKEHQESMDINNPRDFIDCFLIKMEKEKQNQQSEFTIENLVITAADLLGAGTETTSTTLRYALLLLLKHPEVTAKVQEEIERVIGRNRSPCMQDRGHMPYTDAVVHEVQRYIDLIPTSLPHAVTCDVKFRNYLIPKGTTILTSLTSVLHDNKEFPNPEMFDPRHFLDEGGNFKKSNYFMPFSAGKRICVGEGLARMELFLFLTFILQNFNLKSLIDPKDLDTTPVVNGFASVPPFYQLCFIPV

For `C[C@]12CC[C@@H]3c4ccc(B(O)O)cc4C[C@@H](CCCCCCCCC[S+]([O-])CCCC(F)(F)C(F)(F)F)[C@H]3[C@@H]1CC[C@@H]2O` (some centres unmarked) [ZB716, fulvestrant-3-boronic acid], the “Percent of Control” value (CYP3A4 [1]; donor one, 0.15 µM) was −4.55%, the “Percent of Control” value (CYP3A4 [1]; donor one, 1.5 µM) was −7.08% and the “Percent of Control” value (CYP3A4 [1]; donor one, 5 µM) was 4.85%. For the same compound, the “Percent of Control” value (CYP3A4 [1]; donor one, 15 µM) was 9.95%, the “Percent of Control” value (CYP3A4 [1]; donor three, 0.15 µM) was −5.29% and the “Percent of Control” value (CYP3A4 [1]; donor three, 1.5 µM) was −2.34%. For the same compound, the “Percent of Control” value (CYP3A4 [1]; donor three, 5 µM) was −6.62%, the “Percent of Control” value (CYP3A4 [1]; donor three, 15 µM) was −9.26% and the “Percent of Control” value (CYP3A4 [1]; donor two, 0.15 µM) was −2.26%. The “Percent of Control” value (CYP3A4 [1]; donor two, 1.5 µM) was 4.83%, the “Percent of Control” value (CYP3A4 [1]; donor two, 5 µM) was 22.4% and the “Percent of Control” value (CYP3A4 [1]; donor two, 15 µM) was 21.5%. The fold induction at 72 h, 0.15 µM (CYP3A4 [1]; donor one, 0.15 µM) was 0.774 ± 0.078, the fold induction at 72 h, 1.5 µM (CYP3A4 [1]; donor one, 1.5 µM) was 0.649 ± 0.085 and the fold induction at 72 h, 5 µM (CYP3A4 [1]; donor one, 5 µM) was 1.24 ± 0.18. For the same compound, the fold induction at 72 h, 15 µM (CYP3A4 [1]; donor one, 15 µM) was 1.49 ± 0.21, the fold induction at 72 h, 0.15 µM (CYP3A4 [1]; donor three, 0.15 µM) was 0.61 ± 0.043 and the fold induction at 72 h, 1.5 µM (CYP3A4 [1]; donor three, 1.5 µM) was 0.828 ± 0.082. For the same compound, the fold induction at 72 h, 5 µM (CYP3A4 [1]; donor three, 5 µM) was 0.513 ± 0.081, the fold induction at 72 h, 15 µM (CYP3A4 [1]; donor three, 15 µM) was 0.318 ± 0.005 and the fold induction at 72 h, 0.15 µM (CYP3A4 [1]; donor two, 0.15 µM) was 0.797 ± 0.1. The fold induction at 72 h, 1.5 µM (CYP3A4 [1]; donor two, 1.5 µM) was 1.43 ± 0.14, the fold induction at 72 h, 5 µM (CYP3A4 [1]; donor two, 5 µM) was 3.01 ± 0.33 and the fold induction at 72 h, 15 µM (CYP3A4 [1]; donor two, 15 µM) was 2.92 ± 0.25. For the same compound, the half-life at 2 µM (CYP3A4 [2]; human) was 5.91 ± 0.39 min, the Clint (CYP3A4 [2]; recombinant CYP3A4, 2 µM ZB716) was 2.35 µL/min/pmol CYP and 2.35 ± 0.15 µL/min/pmol CYP and the “Estimated In Vitro t1/2” value [3] was “∞”. The “Remaining at 120 min” value [3] was 100%, the IC50 (CYP2B6) was “not observed; also recorded: No Inhibition” and the IC50 (CYP1A2) was > 15000 nM. For the same compound, the half-life at 2 µM (CYP2E1; human) was 19.4 ± 1.2 min, the Clint (CYP2E1; recombinant CYP2E1, 2 µM ZB716) was 0.716 ± 0.044 µL/min/pmol CYP and the half-life at 2 µM (CYP2C8; human) was 11.1 ± 1.2 min. It also gave a Clint (CYP2C8; recombinant CYP2C8, 2 µM ZB716) of 1.25 ± 0.14 µL/min/pmol CYP and an IC50 (CYP2C19) of 2200 nM.
